The values below come from patent publication US12227501B2, “3-amino-2-[2-(acylamino)pyridin-4-yl]-1,5,6,7-tetrahydro-4h-pyrrolo[3,2-c]pyridin-4-one as CSNK1 inhibitors” (Bayer Aktiengesellschaft, priority 2019, dated 2025).

Values joined by “and” are separate entries in the source; they are usually repeats but may differ in a detail not shown here. Equal entries are not always repeated. Where two headings read alike, the source gives them in different places.

What all share (type): biochemical
Experiment [1] concerns the target T1, human CSNK1A1 (Homo sapiens (Human), UniProt P48729). Put plainly: CSNK1A1 Assay 2 (ADP-Glo, 1 μM ATP). The conditions noted are these: substrate biotin-Ahx-KRRRAL-pS-VASLPGL, read-out: CSNK1A1 Assay 2 IC50 [mol/l] (median). The procedure, abridged:
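Full-length human CSNK1A1 as an N-terminal GST fusion (baculovirus/insect cells) with biotinylated peptide substrate biotin-Ahx-KRRRAL-pS-VASLPGL and 1 μM ATP, in HEPES pH 7.5 buffer. Compounds were pre-incubated with enzyme (~0.0375 ng/μL) for 15 min at 22 °C. Generated ADP was read by ADP-Glo luminescence as the activity measure.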
On the technique in general: ADP-Glo first removes unused ATP, then detects ADP through luciferase.

The target of experiment [2] is T1, human CSNK1A1. In words: CSNK1A1 High ATP Assay (ADP-Glo, 1 mM ATP). The conditions noted are these: read-out: CSNK1A1 high ATP assay IC50 [mol/l] (median). The procedure, abridged: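 GST-tagged full-length human CSNK1A1 from baculovirus-infected insect cells (typically about 0.4 ng/μL), pre-incubated with compound 15 min at 22 °C. Reaction with biotinylated peptide biotin-Ahx-KRRRAL-pS-VASLPGL at 1 mM ATP. ADP formed read by ADP-Glo luminescence.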

Experiment [3] has as its target human CSNK1D (Homo sapiens (Human), UniProt P48730). In words: CSNK1D Assay (ADP-Glo, 1 μM ATP). The conditions noted are these: read-out: CSNK1D IC50 [mol/l] (median). The procedure, abridged:
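GST-tagged full-length human CSNK1D from baculovirus-infected insect cells, typically ~0.5 ng/μL, with biotinylated peptide substrate and 1 μM ATP in HEPES pH 7.5 buffer. Compound is preincubated with enzyme 15 min at 22 °C. ADP formed is quantified by ADP-Glo luminescence.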

Experiment [4] has as its target wild-type Epidermal Growth Factor Receptor (EGFR) (Homo sapiens (Human), UniProt P00533). Put plainly: WT-EGFR Kinase Assay (TR-FRET, 2 mM ATP).
[5] abbreviates: read-out: EGFR Wildtyp- 2 mM ATP IC50 [mol/l] (median).
Where [6] appears, read: EGFR Wildtyp- 2 mM ATP IC50 [mol/l] (median).

Chain of wild-type Epidermal Growth Factor Receptor (EGFR) (P00533 669-1210): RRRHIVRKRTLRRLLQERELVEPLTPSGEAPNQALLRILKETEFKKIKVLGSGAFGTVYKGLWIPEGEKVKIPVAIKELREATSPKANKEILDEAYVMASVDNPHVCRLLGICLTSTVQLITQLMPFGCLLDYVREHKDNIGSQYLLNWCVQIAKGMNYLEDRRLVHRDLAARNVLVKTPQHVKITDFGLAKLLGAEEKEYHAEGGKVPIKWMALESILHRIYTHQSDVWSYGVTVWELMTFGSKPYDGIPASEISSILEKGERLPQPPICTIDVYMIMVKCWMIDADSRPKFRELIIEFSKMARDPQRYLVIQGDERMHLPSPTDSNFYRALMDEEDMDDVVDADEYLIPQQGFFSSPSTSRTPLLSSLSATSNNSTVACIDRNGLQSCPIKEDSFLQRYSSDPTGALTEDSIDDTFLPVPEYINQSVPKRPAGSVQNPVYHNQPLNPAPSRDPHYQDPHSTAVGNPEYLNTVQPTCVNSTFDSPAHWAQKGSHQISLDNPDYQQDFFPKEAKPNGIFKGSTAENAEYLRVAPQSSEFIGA
Chain of human CSNK1D (P48730 whole entry): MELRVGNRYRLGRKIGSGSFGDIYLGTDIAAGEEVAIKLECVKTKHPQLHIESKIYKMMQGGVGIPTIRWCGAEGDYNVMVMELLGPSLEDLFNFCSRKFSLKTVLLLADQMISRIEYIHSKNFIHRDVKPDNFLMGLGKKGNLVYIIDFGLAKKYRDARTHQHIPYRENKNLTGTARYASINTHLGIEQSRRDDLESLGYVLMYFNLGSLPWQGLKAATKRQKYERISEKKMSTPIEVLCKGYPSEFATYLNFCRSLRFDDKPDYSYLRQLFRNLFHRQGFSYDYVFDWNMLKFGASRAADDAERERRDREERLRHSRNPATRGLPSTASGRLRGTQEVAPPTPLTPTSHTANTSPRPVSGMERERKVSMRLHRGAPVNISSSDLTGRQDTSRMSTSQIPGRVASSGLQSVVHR
T1 sequence (P48729 whole entry, the tested form may be a part): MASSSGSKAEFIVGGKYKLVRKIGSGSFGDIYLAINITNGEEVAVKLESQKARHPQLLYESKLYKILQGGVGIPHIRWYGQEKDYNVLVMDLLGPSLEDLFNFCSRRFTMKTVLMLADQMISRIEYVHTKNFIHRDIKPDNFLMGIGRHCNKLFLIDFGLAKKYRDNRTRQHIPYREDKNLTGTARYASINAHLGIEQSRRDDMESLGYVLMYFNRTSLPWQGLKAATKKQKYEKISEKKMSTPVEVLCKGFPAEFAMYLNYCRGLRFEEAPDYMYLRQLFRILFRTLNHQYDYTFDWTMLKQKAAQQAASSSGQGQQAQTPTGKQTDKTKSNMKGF

In the case of `CC(C(=O)Nc1cc(-c2[nH]c3c(c2Nc2ccccc2)C(=O)N(C)C2(CCC2)C3)ccn1)c1ccc(F)cc1` (single isomer, unassigned; enantiomer 2) [Example 159, (+)-N-[4-(3′-anilino-5′-methyl-4′-oxo-1′,4′,5′,7′-tetrahydrospiro[cyclobutane-1,6′-pyrrolo[3,2-c]pyridin]-2′-yl)pyridin-2-yl]-2-(4-fluorophenyl)propanamide (Enantiomer 2)], the IC50 in experiment [1] is 90.3 nM; in experiment [2], 217 nM; in experiment [3] it was 90.7 nM; in experiment [4] (setting [5]), greater than 20000 nM.
The corresponding values for `CN1C(=O)c2c([nH]c(-c3ccnc(NC(=O)C(CC(F)F)c4ccc(F)cc4)c3)c2Nc2ccccc2)CC12CCC2` (single isomer, unassigned; enantiomer 2) [Example 162, (+)-N-[4-(3′-anilino-5′-methyl-4′-oxo-1′,4′,5′,7′-tetrahydrospiro[cyclobutane-1,6′-pyrrolo[3,2-c]pyridin]-2′-yl)pyridin-2-yl]-4,4-difluoro-2-(4-fluorophenyl)butanamide (Enantiomer 2)] are 60.2 nM, 61.4 nM, 52.9 nM and greater than 20000 nM.
For `O=C(Cc1ccc(F)cc1)Nc1cc(-c2[nH]c3c(c2Nc2ccccc2)C(=O)N(C2CC2)CC3)ccn1` [Example 7, N-[4-(3-anilino-5-cyclopropyl-4-oxo-4,5,6,7-tetrahydro-1H-pyrrolo[3,2-c]pyridin-2-yl)pyridin-2-yl]-2-(4-fluorophenyl)acetamide], the IC50 in experiment [1] amounted to 2.52 nM; in experiment [2] it was 107 nM; in experiment [3] it was 8.48 nM; in experiment [4] (setting [5]), 2740 nM.
The corresponding values for `CC(C(=O)Nc1cc(-c2[nH]c3c(c2Nc2ccccc2)C(=O)N(C2CC2)CC3)ccn1)c1ccc(F)cc1` (centres unmarked) [Example 8, N-[4-(3-anilino-5-cyclopropyl-4-oxo-4,5,6,7-tetrahydro-1H-pyrrolo[3,2-c]pyridin-2-yl)pyridin-2-yl]-2-(4-fluorophenyl)propanamide] are 15.4 nM, 1930 nM, 37.9 nM and greater than 20000 nM.
The corresponding values for `O=C(Cc1ccc(F)cc1)Nc1cc(-c2[nH]c3c(c2Nc2ccccc2Cl)C(=O)NCC3)ccn1` [Example 13, N-{4-[3-(2-chloroanilino)-4-oxo-4,5,6,7-tetrahydro-1H-pyrrolo[3,2-c]pyridin-2-yl]pyridin-2-yl}-2-(4-fluorophenyl)acetamide] are 1.9 nM, 37 nM, 7.06 nM and 1050 nM.
As to `CC(C(=O)Nc1cc(-c2[nH]c3c(c2Nc2ccccc2Cl)C(=O)NCC3)ccn1)c1ccc(F)cc1` (centres unmarked) [Example 14, N-{4-[3-(2-chloroanilino)-4-oxo-4,5,6,7-tetrahydro-1H-pyrrolo[3,2-c]pyridin-2-yl]pyridin-2-yl}-2-(4-fluorophenyl)propanamide], the IC50 was 4.96 nM in experiment [1], 73.9 nM in experiment [2], 14 nM in experiment [3] and greater than 20000 nM in experiment [4] (setting [5]).
`CN1CCc2[nH]c(-c3ccnc(NC(=O)C(CO)c4ccc(F)cc4)c3)c(Nc3ccccc3)c2C1=O` (centres unmarked) [Example 17, N-[4-(3-anilino-5-methyl-4-oxo-4,5,6,7-tetrahydro-1H-pyrrolo[3,2-c]pyridin-2-yl)pyridin-2-yl]-2-(4-fluorophenyl)-3-hydroxypropanamide]: the IC50 in experiment [1] was 10.9 nM; in experiment [2], 66.5 nM; in experiment [3], 39.3 nM; in experiment [4] (setting [6]) it was 14500 nM and 14300 nM; in experiment [4] (setting [5]) it was greater than 20000 nM.
As to `O=C(Cc1ccc(F)cc1)Nc1cc(-c2[nH]c3c(c2Nc2ccccc2)C(=O)N(CC2CC2)CC3)ccn1` [Example 20, N-{4-[3-anilino-5-(cyclopropylmethyl)-4-oxo-4,5,6,7-tetrahydro-1H-pyrrolo[3,2-c]pyridin-2-yl]pyridin-2-yl}-2-(4-fluorophenyl)acetamide], the IC50 was 9.72 nM in experiment [1]; 1660 nM in experiment [2]; 24.2 nM in experiment [3]; 18100 nM in experiment [4] (setting [6]); greater than 20000 nM in experiment [4] (setting [5]).
For the compound `CCN1CCc2[nH]c(-c3ccnc(NC(=O)C(C)c4ccc(F)cc4)c3)c(Nc3ccccc3)c2C1=O` (centres unmarked) [Example 21, N-[4-(3-anilino-5-ethyl-4-oxo-4,5,6,7-tetrahydro-1H-pyrrolo[3,2-c]pyridin-2-yl)pyridin-2-yl]-2-(4-fluorophenyl)propanamide], the IC50 in experiment [1] was 7.67 nM; in experiment [2] it was 344 nM; in experiment [3], 21.5 nM; in experiment [4] (setting [5]), greater than 20000 nM.
Consider `CC(C)(O)CN1CCc2[nH]c(-c3ccnc(NC(=O)Cc4ccc(F)cc4)c3)c(Nc3ccccc3)c2C1=O` [Example 23, N-{4-[3-anilino-5-(2-hydroxy-2-methylpropyl)-4-oxo-4,5,6,7-tetrahydro-1H-pyrrolo[3,2-c]pyridin-2-yl]pyridin-2-yl}-2-(4-fluorophenyl)acetamide], for which the IC50 in experiment [1] came to 26.7 nM; in experiment [2], 2620 nM; in experiment [3], 36.8 nM; in experiment [4] (setting [5]) it was 7280 nM.
With `CC(C(=O)Nc1cc(-c2[nH]c3c(c2Nc2ccccc2)C(=O)N(CC(C)(C)O)CC3)ccn1)c1ccc(F)cc1` (centres unmarked) [Example 24, N-{4-[3-anilino-5-(2-hydroxy-2-methylpropyl)-4-oxo-4,5,6,7-tetrahydro-1H-pyrrolo[3,2-c]pyridin-2-yl]pyridin-2-yl}-2-(4-fluorophenyl)propanamide], the IC50 in experiment [1] is 39.2 nM; in experiment [2] it was > 5710 nM and 4240 nM; in experiment [3], 64 nM; in experiment [4] (setting [5]), greater than 20000 nM.
`CC(C(=O)Nc1cc(-c2[nH]c3c(c2Nc2ccccc2)C(=O)NC(C)(C)C3)ccn1)c1ccc(F)cc1` (centres unmarked) [Example 27, N-[4-(3-anilino-6,6-dimethyl-4-oxo-4,5,6,7-tetrahydro-1H-pyrrolo[3,2-c]pyridin-2-yl)pyridin-2-yl]-2-(4-fluorophenyl)propanamide]: the IC50 in experiment [1] was 7.7 nM; in experiment [2], 157 nM; in experiment [3], 36.2 nM; in experiment [4] (setting [6]), greater than 20000 nM; in experiment [4] (setting [5]) it was 18000 nM.
With `CCN1CCc2[nH]c(-c3ccnc(NC(=O)Cc4ccc(F)cc4)c3)c(Nc3ccccc3)c2C1=O` [Example 28, N-[4-(3-anilino-5-ethyl-4-oxo-4,5,6,7-tetrahydro-1H-pyrrolo[3,2-c]pyridin-2-yl)pyridin-2-yl]-2-(4-fluorophenyl)acetamide], the IC50 in experiment [1] was 11.4 nM; in experiment [2], 1980 nM; in experiment [3] it was 71.2 nM; in experiment [4] (setting [5]) it was greater than 20000 nM.
The corresponding values for `CN1CCc2[nH]c(-c3ccnc(NC(=O)C(CCN4CCOCC4)c4ccccc4)c3)c(Nc3ccccc3)c2C1=O` (centres unmarked) [Example 30, N-[4-(3-anilino-5-methyl-4-oxo-4,5,6,7-tetrahydro-1H-pyrrolo[3,2-c]pyridin-2-yl)pyridin-2-yl]-4-(morpholin-4-yl)-2-phenylbutanamide] are 8.01 nM, 485 nM, 25.9 nM and greater than 20000 nM.
